From US20090263381A1, “COMBINATION OF DEHYDROEPIANDROSTERONE OR DEHYDROEPIANDROSTERONE-SULFATE WITH AN ANTI-IGE ANTIBODY FOR TREATMENT OF ASTHMA OR CHRONIC OBSTRUCTIVE PULMONARY DISEASE” (priority 2003, published 2009)
Where “and” joins values, the source holds several entries; their conditions need not be identical. Equal entries are not always repeated. Where two headings read alike, the source gives them in different places.

How the values were obtained:
[1] = Solid-state stability with and without lactose (DHEA formation by HPLC); format: physicochemical; conditions: 1 week at 50° C., neat and lactose blend
Source text: These conditions were used to stress the formulation in order to predict its long-term stability results. […] The primary degradant is DHEA. […] The materials on accelerated storage become more cohesive with time as evidenced by clumping during sample weighing for chemical analysis. […] This is a considerable disadvantage since lactose is the most commonly used inhalation excipient for dry powder formulations. Continuing with the virtually anhydrous form would mean limiting formulations to neat powder or undertaking more comprehensive safety studies to use a novel excipient.

late asthmatic response = assay: Late asthmatic response in patients dosed with DHEA-S; format: in vivo; conditions: patients after five days of dosing
[2] = HPLC analysis of drug degradation during jet milling; format: physicochemical; conditions: HPLC peak area versus unmilled standard; single-pass and double-pass
Experimental: Two vials (A; single-pass; 150 mg) and (B double-pass; 600 mg) of the micronized drug were available for determining drug degradation during jet milling micronization. […] The chromatographic peak area for the HPLC assay of the unmilled drug standard solution (10 mg/ml) gave a value of 23,427. […] The chromatographic peak areas for vials A and B were 11,979 and 11,677, respectively.

[3] = Short-term solution stability of DHEA-S formulation; format: physicochemical
Experimental: Aliquots of this solution are filled into clear glass vials and stored at RT (24-26° C.) and at 40° C. The samples are checked daily for DHEA-S content, DHEA content, and appearance. For each time point, duplicate samples are withdrawn and diluted from each vial. […] The study is stopped on day three. […] The solution should easily be stable for the day of reconstitution in a clinical trial. The following section describes the aerosol properties of this formulation.

[4] = for solubility: range of triplicates
Source text: The suspensions are then filtered through a 0.2 micron syringe filter and immediately diluted for HPLC analysis. To prepare refrigerated samples, the syringes and filters are stored in the refrigerator for at least one hour before use.

[5] = 0.12% NaCl (20 mM Cl^-)
Experimental: The nebulizer is filled with 5 mL of solution and nebulization is continued until the output became visually insignificant (4½ to 5 min.). Nebulizer solutions are tested using a California Instruments AS-6 6-stage impactor with a USP throat. The impactor is run at 30 L/min for 8 s to collect a sample following one minute of nebulization time. At all other times during the experiment, the aerosol is drawn through the by-pass collector at approximately 33 L/min. The collection apparatus, nebulizer, and impactor are rinsed with mobile phase and assayed by HPLC. […] This volume is selected as the practical upper limit for use in a clinical study.

[6] = Nakagawa et al. 1981, 1982; cited from earlier work
Intracellular adenosine = assay: In vivo effect on adenosine levels in various rat tissues; set-up: species or system Fischer 344 rats
Experimental: Folinic acid (50 mg/kg) was administered intraperitoneally once daily for fourteen days. […] Hearts were removed from animals and flash frozen in liquid nitrogen with 10 s of death. Liver and lungs were removed en bloc and flash frozen with […]. Brain tissue was subsequently dissected.

[7] = Particle size of jet-milled and spray-dried anhydrous DHEA-S (Malvern Mastersizer X, light microscope); format: physicochemical; conditions: spray dried material, two batches
Experimental: Approximately 1 g sample was passed through the jet mill, once, and approximately 2 g sample were passed through the jet mill twice. […] The resulting solution was sonicated for 3 minutes and appeared fully dispersed. The dispersed solutions were tested on a Malvern Mastersizer X with a small volume sampler (SVS) attachment. One sample of dispersed material was tested 5 times. The median particle size or D (v, 0.5) of unmilled material was 52.56 μm and the % RSD (relative standard deviation) was 7.61 for the 5 values. The D (v, 0.5) for a single pass through the jet mill was 3.90 μm and the % RSD was 1.27, and the D (v, 0.5) from a double pass through the jet mill 3.25 μm and the % RSD was 3.10.
The solution was spray-dried with a B-191 Mini Spray-Drier (Buchi, Flawil, Switzerland) with an inlet temperature of 55° C., outlet temperature of 40° C., at 100% aspirator, at 10% pump, nitrogen flow at 40 mbar and spray flow at 600 units. The spray-dried product was suspended in hexane and Span85 surfactant added to reduce agglomeration. The dispersions were sonicated with cooling for 3-5 minutes for complete dispersion and the dispersed solutions tested on a Malvern Mastersizer X with a Small Volume Sampler (SVS) attachment. […] Visual examination by light microscope of the dispersions of each batch confirmed that spray drying produced small respirable size particles. […]

HT-29 SF cells [8] = assay: DHEA effect on cell growth (Coulter counter); format: cell-based, human
HT-29 SF cells [9] = assay: DHEA effect on cell cycle distribution (flow cytometry); format: cell-based, human; conditions: 25, 50 or 200 μM DHEA; 24, 48, 72 hours
Experimental: Cells were plated at 10^5/60-mm dish in duplicate. […] Cultures were trypsinized following 0, 24, 48, or 74 hours and fixed and stained using a modification of a procedure of Bauer et al., Cancer Res. 46, 3173-3178 (1986). Briefly, cells were collected by centrifugation and resuspended in cold phosphate-buffered saline. Cells were fixed in 70% ethanol, washed, and resuspended in phosphate-buffered saline.
After 24, 48, and 72 hours, cells were harvested, fixed in ethanol, and stained with propidium iodide, and the DNA content/cell was determined by flow cytometric analysis. The percentage of cells in G1, S, and G2M phases was calculated using the Cellfit cell cycle analysis program. S phase is marked by a quadrangle for clarity. Representative histograms from duplicate determinations are shown. The experiment was repeated three times.

HT-29 SF cells [10] = assay: Reversal of DHEA effect on cell cycle by medium supplements; format: cell-based, human; conditions: 25 FM DHEA, with increasing exposure time

Compound: CC12CCC3C(CC=C4CC(OS(=O)(=O)[O-])CCC43C)C1CCC2=O.[Na+] (stereo not drawn) [DHEA-S dihydrate]
- DHEA generated on storage (in words) [1]: virtually no DHEA generated

Compound: sodium dehydroepiandrostenone sulfate [DHEA-S]
- reduction of the late asthmatic response (late asthmatic response): 33%
- degradation of the drug during jet milling micronization [2]: no detectable degradation
- stability of nebulizer formulation ([3]; 7.5 mg/mL of DHEA-S in 0.12% NaCl): stable for at least one day at RT
- appearance of solution on storage ([3]; 10 mg/mL in 0.12% NaCl, 40° C. (accelerated condition)): became cloudy after two days of storage
- solubility ([4]; 0.9% NaCl, refrigerated (7-8° C.)): 1100 to 1300 µg/mL
- Ksp ([4]; 15° C., interpolated versus reciprocal of absolute temperature): ~1316 mM^2
- equilibrium constant Ksp ([4]; refrigerated (7-8° C.), slope of solubility versus reciprocal sodium cation concentration): 665 mM^2
- solubility ([4]; ~25° C., 0% NaCl): 16500 to 17400 µg/mL
- highest solution concentration that will not precipitate during nebulization [5]: approximately 7.5 mg/mL
- solid-state properties (in words) [6]: most stable and crystalline as the dihydrate form

Compound: Nc1nc(=O)c2c([nH]1)NCC(CNc1ccc(C(=O)N[C@@H](CCC(=O)O)C(=O)O)cc1)N2C=O (mixture of isomers) [Folinic Acid, Folinic acid]
- effect on adenosine levels when administered alone (Intracellular adenosine; rats, folinic acid 50 mg/kg alone, all organs studied): increase in adenosine levels for all organs studied
- effect of coadministration on steroid-mediated adenosine depletion (Intracellular adenosine; rats, folinic acid 50 mg/kg coadministered with DHEA or methyltestosterone): completely abrogated steroid-mediated adenosine depletion

Compound: C[C@]12CC[C@H](OS(=O)(=O)[O-])CC1=CC[C@@H]1[C@@H]2CC[C@]2(C)C(=O)CC[C@@H]12.[Na+] [Anhydrous DHEA-S]
- mean particle size (Malvern Mastersizer X) [7]: 5.07±0.70 μm and 6.66±0.91 μm
- mean particle size (light microscope) [7]: 2.4 μm and 2.0 μm
- solid-state properties (in words) [6]: low crystallinity and is very hygroscopic

Compound: C[C@]12CC[C@H](O)CC1=CC[C@@H]1[C@@H]2CC[C@]2(C)C(=O)CC[C@@H]12 [DHEA, 3β-hydroxyandrost-5-en-17-one]
- effect on tissue adenosine (in words) (Intracellular adenosine; rat, in vivo): multi-organ depletion of adenosine
- effect on growth of HT-29 cells (in words) (HT-29 SF cells [8]; 0-200 μM, 0-72 hours): time- and dose-dependent inhibition of growth
- exposure time after which cell number was reduced compared to controls (HT-29 SF cells [8]; 12.5 μM DHEA): 72 h
- exposure time after which cell number was reduced compared to controls (HT-29 SF cells [8]; 25 μM DHEA): 48 h
- exposure time after which cell number was reduced compared to controls (HT-29 SF cells [8]; 50 μM DHEA): 48 h
- exposure time after which cell number was reduced compared to controls (HT-29 SF cells [8]; 200 μM DHEA): 24 h
- cell cycle effect (overall, in words) (HT-29 SF cells [9]): G1 block in HT-29 SF cells in a time- and dose-dependent manner
- proportion of cells in S phase (HT-29 SF cells [10]): progressively reduced the proportion of cells in S phase
